Measurements published in patent publication US20250152566A1 (priority 2023, published 2025).
“Also recorded” adds a separate entry of the source.

Legend:
[1] = tested on: fatigue symptomatology in post-COVID syndrome (PCS); assay: Further study (case series, pat. 1 to 5): Bell score and need for sleep in post-COVID syndrome under Amifampridine; assay type: in vivo, human
Source text: (§1) The Bell-score (or scale) is a measure of the impediment in the case of ME & CFS. It is also suitable for long COVID patients. The Bell scale is individual because each patient has a different stress tolerance and suffering from severe symptoms at rest can be relatively different. • 100 No symptoms at rest; no symptoms with physical stress; a normal overall activity level; able to work full-time without any difficulties. • 90 No symptoms at rest; mild symptoms with physical and mental stress; a normal overall activity level; able to work full-time without any difficulties. • 80 Mild symptoms at rest; the symptoms intensify due to stress; a slight performance limitation noticeable only with activities, which are strenuous; able to work full-time in jobs, which require exertion of force, with difficulties. • 70 Mild symptoms at rest; significant limitations noticeable in the daily activities; the functional state is a total of about 90% of the norm—with the exception of activities, which require an exertion of force; able to work full-time with difficulties. • 60 Mild symptoms at rest; significant limitations in the daily activities; the functional state is a total of about 70%-90% of the norm; unable to work a full-time job if physical work is required there; however, able to work full-time if it is light work and the hours of work can be handled flexibly. • 50 Moderate symptoms at rest; moderate to severe symptoms in response to physical stress or activity; the functional state is reduced to 70% of the norm; unable to perform strenuous work, but able to perform light work or desk work for 4-5 hours daily, whereby rest periods are required. • 40 Moderate symptoms at rest; moderate to severe symptoms in response to stress or activity; the functional state is reduced to 50%-70% of the norm; unable to perform strenuous work, but able to perform light work or desk work for 3-4 hours daily, whereby rest periods are required. • 30 Moderate to severe symptoms at rest; severe symptoms in response to any stress or activity; the functional state is reduced to 50% of the norm; generally housebound; unable to perform strenuous work, but able to perform light work or desk work for 2-3 hours daily, whereby rest periods are required. • 20 Moderate to severe symptoms at rest; severe symptoms in response to any stress or activity; the functional state is reduced to 30%-50% of the norm, except for rare exceptions, unable to leave the house; bedridden for the majority of the day; unable to concentrate for more than one hour per day. • 10 Severe symptoms at rest; bedridden most of the time; leaving the house is not possible; significant cognitive symptoms, which make it impossible to concentrate. • 0 Constant severe symptoms; always bedridden; unable to perform the simplest care measures.
A further study was performed on a patient group. A reduced fatigue symptomatology was determined in this study as well in the case of post-COVID syndrome under Amifampridine.
The prevalence of a post-COVID syndrome (PCS) is 10-15% after SARS-CoV-2 infection, a large variety of functional symptoms appear in addition to specific organ diseases, predominantly a fatigue symptomatology. The latter is characterized by persistent tiredness, weakness, cognitive deficits as well as increased need for sleep. […] The Bell score, which focusses on the limitation of the vigilance, physical endurance and job, was used for the evaluation. • In the case of pat. 1 of the further study, a previous Zn. EBV infection is known, otherwise no internal or neurological preexisting conditions. Fluctuating fatigue symptomatology after SARS-CoV-2 infection in May of 2022 with a Bell score between 20 and 40, increased need for sleep with 12 hours/24 h. After taking 5 mg of Amifampridine three times within 24 h (h: hours), there was complete convalescence with a Bell score of 100, the need for sleep reduced to 7 hours/24 h. Withdrawal trials ended in a fatigue again. • In the case of pat. […]

[2] = tested on: fatigue symptomatology after COVID infection; assay: Off-label therapy case descriptions (cases 1 to 3) of fatigue symptomatology after COVID infection; assay type: in vivo, human
Procedure: (§2) Pyridine-3,4-diamine Amifampridine (formulation as finished drug) was administered in the below-mentioned application examples. As part of the double-blind study, capsules that look the same with Amifampridine or placebo were prepared blind by a pharmacy, whereby only the pharmacy knew which capsules contained active ingredient or placebo.
The following laboratory and ECG controls for detecting substance-associated complications were inconspicuous.
In case 3, a patient is described, who suffered from fatigue symptomatology with a need for sleep of up to 2×9 hours per day, after being infected with COVID twice.

[3] = tested on: LEMS patients; settings: cited from earlier work
[4] = tested on: fatigue symptomatology after SARS-CoV-2 infection; assay: Patients 2.1 to 2.5: Bell score and cumulative sleep time in 24 h with and without Amifampridine; assay type: in vivo, human; settings: for Bell score, long term: long-term medication, daily dose 20 mg to 25 mg, 5 mg each at an interval of 4 hours
Source text: as §1
The following dosages of patients 2.1 to 2.5 and the changed Bell score values as well as the need for sleep in hours are illustrated in FIGS. 1 and 2 (FIG. 1 Bell-score with and without Amifampridine, patients 2.1 to 2.5, FIG. 2: cumulative sleep time in 24 h).
In the case of pat. 2.1, a psychotherapist without internal or neurological preexisting conditions, fluctuating fatigue symptomatology with a Bell score between 20 and 40 as well as increased need for sleep with 12 hours/24 h occurred after SARS-CoV-2 infection in May of 2022. After taking 5 mg of Amifampridine once, there was complete convalescence with a Bell score of 100, the need for sleep reduced to 7 hours/24 h.
After withdrawal trials (three days no Amifampridine) with recurrent fatigue, a long-term medication with a daily dose of 20 mg to 25 mg of 5 mg each at an interval of 4 hours occurred, whereby the Bell score is permanently from 90 to 100. This Bell score value can already be maintained for three quarters of a year. Taken from morning to night before going to sleep.
In the case of pat. […]

[5] = tested on: fatigue after SARS-CoV-2 infection; assay: Double-blind withdrawal trial (verum/placebo, 3 days each) in pat. 2.1 and 2.2; assay type: in vivo, human; settings: at start of the double-blind trial, already on Amifampridine (4 times 5 mg per day)
Procedure: as §2
In the case of pat. 2.1 and 2.2, a long-term medication with 20 mg of Amifampridine each per day were required for reconvalescence and thus offered prerequisites for a double-blind withdrawal trial for 3 days each.
Pat. 2.1 with verum on days 1-3, followed by placebo on days 4-6:
Pat. (pat. 2.1) with Bell score 90 already started with Amifampridine, as described above, and continued this with blister with […] each day, one drawer with capsules for 3 days with 4 times 5 mg of Amifampridine each. The dosage for 3 days each was placebo with 4 times placebo capsules each for patient 1 and 2 (verum and placebo).
Pat. 2.1: verum on days 1-3, followed by placebo on days 4-6: reduction of the Bell score to minimally 30 in the placebo phase, increased sleep time to 10.5 hours (FIG. 3: pat. 2.1, Bell score (line with squares with side lines of the squares parallel and perpendicular to the main line; sleep time/24 h (line with smaller squares, tips of squares point upwards/downwards as well as to the right and left). […]

[6] = tested on: MS patients; settings: described in the literature; cited from earlier work
[7] = pat. 5 (LEMS), 5 mg three or four times as daily dose
[8] = pat. 2.5 (LEMS), 60 mg, later 70 mg per day (3 times 20 mg, optionally additional 5 mg)
[9] = pat. 2.5 (LEMS), initial administration of 3×5 mg

Molecule: Nc1ccncc1N [Amifampridine, Pyridine-3,4-diamine]
- need for sleep ([1]; pat. 1, after 5 mg three times within 24 h, before 12): 7 hours/24 h
- Bell score ([1]; pat. 1, after 5 mg three times within 24 h, before 20 to 40): 100
- vigilance ([1]; pat. 2, after 5 mg three times): unlimited vigilance
- need for sleep ([1]; pat. 2, after 5 mg three times, before 12): 7.5 hours/24 h
- Bell score ([1]; pat. 2, after 5 mg three times, before 40): 100
- duration of the effect ([1]; pat. 3, after taking 5 mg): about 36 hours
- need for sleep ([1]; pat. 3, after taking 5 mg, before 11 to 12 hours/24 h): 7 to 9 h
- Bell score ([1]; pat. 3, after taking 5 mg, before 40): 100
- Bell score ([1]; pat. 4 (post-COVID myocarditis), 5 mg three times within 24 h, before 20): 50
- need for sleep ([1]; pat. 4, 5 mg three times within 24 h, before 12 to 14): 8 to 10 hours/24 h
- fatigue [1, 7]: the fatigue ceased
- muscular endurance [1, 7]: improved muscular endurance
- need for sleep ([1]; pat. 5 (LEMS), 5 mg three or four times as daily dose, before 16 to 18): 8-9 hours/24 h
- muscular deficits ([2]; case 1): immediate improvement of the muscular deficits
- serious fatigue symptomatology existing since the COVID infection ([2]; case 1, need for sleep or rest up to 20 hours per day before): sudden improvement
- laboratory and ECG controls for detecting substance-associated complications ([2]; case 2): inconspicuous
- ability to concentrate ([2]; case 2, 5 mg of Amifampridine): complete restitution of the ability to concentrate
- assignable side effects ([2]; case 2, 5 mg of Amifampridine): Slight perioral paresthesias
- fatigue symptomatology ([2]; case 2, 5 mg of Amifampridine): complete improvement of the fatigue symptomatology
- existing fatigue ([2]; case 2, daily dose of 3×5 mg): ceases completely
- ability to concentrate ([2]; case 3, 5 mg of Amifampridine): sudden improvement of the ability to concentrate
- side effects ([2]; case 3, 5 mg of Amifampridine): Transient perioral paresthesias with very low intensity
- need for sleep and rest ([2]; case 3, 5 mg of Amifampridine, before up to 2×9 hours per day): physiological need for sleep and rest
- co-indicated / coincident fatigue of LEMS patients ([3]; LEMS patients): improvement of a co-indicated fatigue
- need for sleep ([4]; pat. 2.1, after taking 5 mg once, before 12): 7 hours/24 h
- Bell score ([4]; pat. 2.1, after taking 5 mg once, before 20 to 40): 100
- Bell score, long term ([4]; pat. 2.1, held for three quarters of a year): 90 to 100
- duration of the effect ([4]; pat. 2.2, after taking 5 mg): about 36 hours
- need for sleep ([4]; pat. 2.2, after taking 5 mg, before 11-12 hours/24 h): 7 to 9 h
- Bell score ([4]; pat. 2.2, after taking 5 mg, before 40): 80
- Bell score, long term ([4]; pat. 2.2, past month): 90 to 100
- vigilance ([4]; pat. 2.3, after 5 mg): unlimited vigilance
- need for sleep ([4]; pat. 2.3, after 5 mg, before 12): 7.5 hours/24 h
- Bell score ([4]; pat. 2.3, after 5 mg, before 40): 100
- Bell score with regard to fatigue [4, 8]: 70 to 80
- Bell score with regard to the muscular deficits [4, 8]: approx. 20
- fatigue [4, 9]: the fatigue ceased
- muscular endurance [4, 9]: improved muscular endurance
- Bell score ([4]; pat. 2.5 (LEMS), initial administration of 3×5 mg, before 10): 80
- need for sleep ([4]; pat. 2.5 (LEMS), initial administration of 3×5 mg, before 16-18): 8-9 hours/24 h
- Bell score ([4]; patient 2.4 (post-COVID myocarditis), after 5 mg, before 20): 50
- need for sleep ([4]; patient 2.4, after 5 mg, before 12-14): 8 to 10 hours/24 h
- Bell score [5]: 90

Molecule: Nc1ccncc1 [Fampridine]
- accompanying fatigue symptomatology in MS patients [6]: improvement of an accompanying fatigue symptomatology; also recorded: favorable effects

Molecule: Amifampridine Phosphate
- coincident fatigue with LEMS ([3]; as phosphates, 20 to 80 mg as daily doses, J Clin Neuromuscul Dis. 2019): Improvement of a coincident fatigue
